# Laboratory results published in patent US5100873A, “Irreversible peptide ligands for bombesin receptors, their use, and process for making the same” (priority 1988, dated 1992).
# Where a name gives a salt, the structure may show the parent alone. Read-outs that look alike come from different tables or passages of the source. *1 amine or outer side, *2 acyl side, *3 side chain or, on linkers, in order; H or OH if unused. Where a SMILES comes first, the peptide text is derived from it. [ ]: non-standard residue; d: D form. The star is where a group is joined. Phe(4-N(CH2CH2Cl)2) = N[C@@H](Cc1ccc(N(CCCl)CCCl)cc1)C(=O)O; X1 = O=C([C@H](Cc1cccc(N(CCCl)CCCl)c1)N[*:1])[*:2]; Boc = CC(C)(C)OC(=O)*
# Legend:
# [1] = system: p115 protein associated with the bombesin receptor complex; assay: Phosphorylation of the p115 protein associated with the bombesin receptor; assay type: cell-based
# Description: Mitogenic effect of bombesin and its analogues were also evaluated as activation of the proteintyrosin kinase that phosphorylates a 115 KD protein (p115) associated with the bombesin receptor complex (D. Cirillo et al. (1986) Mol. Cell. Biol. 6, 4641-4649) (Table 3).
# Swiss 3T3 fibroblasts [2] = assay: [H3]thymidine incorporation (mitogenesis), analogues given alone; assay type: cell-based, mouse; conditions: for [H3]thymidine incorporation, fold increase over basal value: analogue alone; for Effect on thymidine incorporation (in words): given alone
# Description: (§1) The effect on mitogenesis was determined in quiescent and confluent Swiss 3T3 cells maintained in serum free medium (A. N. Corps et al (1985) Biochem J. 231, 781-785). In a first set of experiments, analogues were given alone or in combination with bombesin. In a second set of experiments, cells were pre-treated with the alkylating peptides, washed, left at 37° C. for 24 hours and then challenged with bombesin. In both cases, DNA synthesis was evaluated as [H^3 ]thymidine incorporation (Table 2).
# bombesin receptors = molecular target: T1, bombesin receptors (Mus musculus, UniProt P21729); assay: Binding affinity for bombesin receptors on mouse Swiss 3T3 fibroblasts; conditions: for ID50: mouse Swiss 3T3 fibroblasts
# T1 construct: bombesin receptors was determined on mouse Swiss 3T3 fibroblasts; endogenous in cells; host or cells: mouse Swiss 3T3 fibroblasts
# Description: The binding affinity of the compounds of the present invention for bombesin receptors was determined on mouse Swiss 3T3 fibroblasts (I. Zachary and E. Rozengurt (1985) Proc. Natl. Acad. Sci. USA, 82, 7616-7620) (Table 1).
# Swiss 3T3 fibroblasts [3] = assay: Inhibition of BBS-induced [H3]thymidine incorporation (given with BBS or as pre-treatment); assay type: cell-based, mouse
# Swiss 3T3 fibroblasts [4] = assay: as above; assay type: cell-based, mouse; conditions: for % inhibition in the presence of 25 nM BBS (A): A = analogues given in combination with BBS; for % inhibition in the presence of 25 nM BBS (B): B = cells pretreated with analogues, washed, left at 37° C. for 24 h, then challenged with BBS; for Antagonism of BBS (in words): given together / contemporaneously with BBS
# Description: as §1
# T1 sequence (P21729 whole entry): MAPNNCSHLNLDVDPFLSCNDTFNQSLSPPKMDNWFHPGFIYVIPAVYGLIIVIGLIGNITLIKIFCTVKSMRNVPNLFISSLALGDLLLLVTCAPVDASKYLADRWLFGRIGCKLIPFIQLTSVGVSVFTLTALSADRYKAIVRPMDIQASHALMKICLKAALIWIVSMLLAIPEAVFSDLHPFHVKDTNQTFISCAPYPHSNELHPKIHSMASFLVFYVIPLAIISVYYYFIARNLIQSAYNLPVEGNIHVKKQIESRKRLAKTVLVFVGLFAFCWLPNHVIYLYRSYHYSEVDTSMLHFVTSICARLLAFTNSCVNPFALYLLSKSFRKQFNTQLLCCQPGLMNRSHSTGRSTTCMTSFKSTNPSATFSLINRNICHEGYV
compound,measurement,setting,value
"CSCC[C@H](NC(=O)[C@H](CC(C)C)NC(=O)[C@H](Cc1cnc[nH]1)NC(=O)CNC(=O)[C@@H](NC(=O)[C@H](C)NC(=O)[C@H](Cc1c[nH]c2ccccc12)NC(=O)[C@H](CCC(N)=O)NC(=O)[C@H](CC(N)=O)NC(=O)CNC(=O)[C@H](CC(C)C)NC(=O)[C@H](CCCN=C(N)N)NC(=O)[C@H](CCC(N)=O)NC(=O)[C@@H]1CCC(=O)N1)C(C)C)C(N)=O [BBS, Glp-Gln-Arg-Leu-Gly-Asn-Gln-Trp-Ala-Val-Gly-His-Leu-Met-NH2, reference compound]","Minimal active dose, p115 phosphorylation",[1],3
same,"[H3]thymidine incorporation, fold increase over basal value",Swiss 3T3 fibroblasts [2]; 5 nM,3.0 ± 1
"CC(C)[C@H](NC(=O)[C@H](C)NC(=O)[C@H](Cc1c[nH]c2ccccc12)NC(=O)[C@H](CCC(N)=O)NC(=O)[C@H](Cc1ccc(N(CCCl)CCCl)cc1)NC(=O)OC(C)(C)C)C(=O)NCC(=O)O [III, Boc-pMel-Gln-Trp-Ala-Val-Gly-OH] (Boc-[Phe(4-N(CH2CH2Cl)2)]QWAVG-OH)",IC50,bombesin receptors,12000 nM
"CC(C)[C@H](NC(=O)[C@H](C)NC(=O)[C@H](Cc1c[nH]c2ccccc12)NC(=O)[C@H](CCC(N)=O)NC(=O)[C@H](Cc1cccc(N(CCCl)CCCl)c1)NC(=O)OC(C)(C)C)C(=O)NCC(=O)O [IX, Boc-mMel-Gln-Trp-Ala-Val-Gly-OH] (Boc-[X1]QWAVG-OH)",IC50,bombesin receptors,8200 nM
"CC(C)C[C@H](NC(=O)[C@H](CC(C)C)NC(=O)[C@@H](Cc1c[nH]c2ccccc12)NC(=O)[C@H](Cc1ccccc1)NC(=O)[C@@H](Cc1c[nH]c2ccccc12)NC(=O)[C@H](CCC(N)=O)NC(=O)[C@H](CCC(N)=O)NC(=O)[C@@H]1CCCN1C(=O)[C@H](CCCCN)NC(=O)[C@@H]1CCCN1C(=O)[C@H](N)CCCNC(=N)N)C(N)=O [Spantide, reference compound] (H-[dR]PKPQQ[dW]F[dW]LL-NH2)","Minimal active dose, p115 phosphorylation",[1],> 10000 nM
"CSCC[C@H](NC(=O)[C@H](CC(C)C)NC(=O)[C@H](Cc1c[nH]cn1)NC(=O)CNC(=O)[C@@H](NC(=O)[C@H](C)NC(=O)[C@H](Cc1c[nH]c2ccccc12)NC(=O)[C@H](CCC(N)=O)NC(=O)[C@H](Cc1ccc(N(CCCl)CCCl)cc1)NC(=O)OC(C)(C)C)C(C)C)C(N)=O [VI, Boc-pMel-Gln-Trp-Ala-Val-Gly-His-Leu-Met-NH2]",IC50,bombesin receptors,48 ± 2 nM
"CSCC[C@H](NC(=O)[C@H](CC(C)C)NC(=O)[C@H](Cc1c[nH]cn1)NC(=O)CNC(=O)[C@@H](NC(=O)[C@H](C)NC(=O)[C@H](Cc1c[nH]c2ccccc12)NC(=O)[C@H](CCC(N)=O)NC(=O)[C@@H](N)Cc1ccc(N(CCCl)CCCl)cc1)C(C)C)C(N)=O [VII, H-pMel-Gln-Trp-Ala-Val-Gly-His-Leu-Met-NH2.2 HCl]",IC50,bombesin receptors,60 ± 20 nM
"CSCC[C@H](NC(=O)[C@H](CC(C)C)NC(=O)CNC(=O)[C@@H](NC(=O)[C@H](C)NC(=O)[C@H](Cc1c[nH]c2ccccc12)NC(=O)[C@H](CCC(N)=O)NC(=O)[C@@H](NC(=O)CNC(=O)[C@H](CC(C)C)NC(=O)[C@H](Cc1cccc(N(CCCl)CCCl)c1)NC(=O)OC(C)(C)C)[C@@H](C)O)C(C)C)C(N)=O [XIV, Boc-mMel-Leu-Gly-Thr-Gln-Trp-Ala-Val-Gly-Leu-Met-NH2] (Boc-[X1]LGTQWAVGLM-NH2)",IC50,bombesin receptors,445 ± 60 nM
"CSCC[C@H](NC(=O)[C@H](CC(C)C)NC(=O)[C@H](Cc1c[nH]cn1)NC(=O)CNC(=O)[C@@H](NC(=O)[C@H](C)NC(=O)[C@H](Cc1c[nH]c2ccccc12)NC(=O)[C@H](CCC(N)=O)NC(=O)[C@@H](N)Cc1cccc(N(CCCl)CCCl)c1)C(C)C)C(N)=O [XIX, H-mMel-Gln-Trp-Ala-Val-Gly-His-Leu-Met-NH2.2HCl]",IC50,bombesin receptors,95 ± 8 nM
"CSCC[C@H](NC(=O)[C@H](CC(C)C)NC(=O)[C@H](Cc1c[nH]cn1)NC(=O)CNC(=O)[C@@H](NC(=O)[C@H](C)NC(=O)[C@H](Cc1c[nH]c2ccccc12)NC(=O)[C@H](CCC(N)=O)NC(=O)[C@H](Cc1cccc(N(CCCl)CCCl)c1)NC(=O)OC(C)(C)C)C(C)C)C(N)=O [XVIII, Boc-mMel-Gln-Trp-Ala-Val-Gly-His-Leu-Met-NH3.CF3 COOH]",IC50,bombesin receptors,40 ± 12 nM
"CSCC[C@H](NC(=O)[C@H](CC(C)C)NC(=O)CNC(=O)[C@@H](NC(=O)[C@H](C)NC(=O)[C@H](Cc1c[nH]c2ccccc12)NC(=O)[C@H](CCC(N)=O)NC(=O)[C@H](Cc1cccc(N(CCCl)CCCl)c1)NC(=O)OC(C)(C)C)C(C)C)C(N)=O [XX, Boc-mMel-Gln-Trp-Ala-Val-Gly-Leu-Met-NH2] (Boc-[X1]QWAVGLM-NH2)",IC50,bombesin receptors,60.1 ± 3.3 nM
Boc-mMel-Gln-Trp-Ala-Val-Gly-His(Dnp)-Leu-Met-NH2 [XVI],"Minimal active dose, p115 phosphorylation",[1],40 nM
same,ID50,bombesin receptors,390 ± 160 nM
same,Antagonism of BBS (in words),Swiss 3T3 fibroblasts [3],potent antagonists
same,% inhibition in the presence of 25 nM BBS (A),Swiss 3T3 fibroblasts [4]; 500 nM,17 ± 2%
same,% inhibition in the presence of 25 nM BBS (B),Swiss 3T3 fibroblasts [4]; 500 nM,47 ± 10%
same,% inhibition in the presence of 25 nM BBS (A),Swiss 3T3 fibroblasts [4]; 5000 nM,41 ± 1%
same,% inhibition in the presence of 25 nM BBS (B),Swiss 3T3 fibroblasts [4]; 5000 nM,37 ± 7%
same,Antagonism of BBS (in words),Swiss 3T3 fibroblasts [4],potent antagonists
same,"[H3]thymidine incorporation, fold increase over basal value",Swiss 3T3 fibroblasts [2]; 5 nM,1.2
same,"[H3]thymidine incorporation, fold increase over basal value",Swiss 3T3 fibroblasts [2]; 50 nM,1.6
same,"[H3]thymidine incorporation, fold increase over basal value",Swiss 3T3 fibroblasts [2]; 500 nM,3.1
same,"[H3]thymidine incorporation, fold increase over basal value",Swiss 3T3 fibroblasts [2]; 5000 nM,3.9
same,Effect on thymidine incorporation (in words),Swiss 3T3 fibroblasts [2],did not increase incorporation of thymidine
Boc-pMel-Gln-Trp-Ala-Val-Gly-His(Dnp)-Leu-Met-NH2 [IV],"Minimal active dose, p115 phosphorylation",[1],50 nM
same,ID50,bombesin receptors,"1,170 ± 400 nM"
same,Antagonism of BBS (in words),Swiss 3T3 fibroblasts [3],potent antagonists
same,% inhibition in the presence of 25 nM BBS (A),Swiss 3T3 fibroblasts [4]; 500 nM,59 ± 3%
same,% inhibition in the presence of 25 nM BBS (B),Swiss 3T3 fibroblasts [4]; 500 nM,81%
same,% inhibition in the presence of 25 nM BBS (A),Swiss 3T3 fibroblasts [4]; 5000 nM,67 ± 3%
same,% inhibition in the presence of 25 nM BBS (B),Swiss 3T3 fibroblasts [4]; 5000 nM,73%
same,Antagonism of BBS (in words),Swiss 3T3 fibroblasts [4],potent antagonists
same,"[H3]thymidine incorporation, fold increase over basal value",Swiss 3T3 fibroblasts [2]; 5 nM,1
same,"[H3]thymidine incorporation, fold increase over basal value",Swiss 3T3 fibroblasts [2]; 50 nM,1
same,"[H3]thymidine incorporation, fold increase over basal value",Swiss 3T3 fibroblasts [2]; 500 nM,1.7
same,"[H3]thymidine incorporation, fold increase over basal value",Swiss 3T3 fibroblasts [2]; 5000 nM,2.3
same,Effect on thymidine incorporation (in words),Swiss 3T3 fibroblasts [2],did not increase incorporation of thymidine
H-mMel-Gln-Trp-Ala-Val-Gly-His-(Dnp)-Leu-Met-NH2.HCl [XVII],"Minimal active dose, p115 phosphorylation",[1],4 nM
same,ID50,bombesin receptors,148 ± 27 nM
same,Antagonism of BBS (in words),Swiss 3T3 fibroblasts [3],potent antagonists
same,% inhibition in the presence of 25 nM BBS (A),Swiss 3T3 fibroblasts [4]; 500 nM,6 ± 3%
same,% inhibition in the presence of 25 nM BBS (B),Swiss 3T3 fibroblasts [4]; 500 nM,58 ± 13%
same,% inhibition in the presence of 25 nM BBS (A),Swiss 3T3 fibroblasts [4]; 5000 nM,20 ± 7%
same,% inhibition in the presence of 25 nM BBS (B),Swiss 3T3 fibroblasts [4]; 5000 nM,62 ± 1%
same,Antagonism of BBS (in words),Swiss 3T3 fibroblasts [4],potent antagonists
same,"[H3]thymidine incorporation, fold increase over basal value",Swiss 3T3 fibroblasts [2]; 5 nM,1
same,"[H3]thymidine incorporation, fold increase over basal value",Swiss 3T3 fibroblasts [2]; 50 nM,2.9
same,"[H3]thymidine incorporation, fold increase over basal value",Swiss 3T3 fibroblasts [2]; 500 nM,4.2
same,"[H3]thymidine incorporation, fold increase over basal value",Swiss 3T3 fibroblasts [2]; 5000 nM,3.9
same,Effect on thymidine incorporation (in words),Swiss 3T3 fibroblasts [2],did not increase incorporation of thymidine
H-pMel-Gln-Trp-Ala-Val-Gly-His(Dnp)-Leu-Met-NH2.HCl,"Minimal active dose, p115 phosphorylation",[1],100 nM
same,ID50,bombesin receptors,680 ± 150 nM
same,Antagonism of BBS (in words),Swiss 3T3 fibroblasts [3],potent antagonists
same,% inhibition in the presence of 25 nM BBS (A),Swiss 3T3 fibroblasts [4]; 500 nM,26 ± 8%
same,% inhibition in the presence of 25 nM BBS (B),Swiss 3T3 fibroblasts [4]; 500 nM,87 ± 9%
same,% inhibition in the presence of 25 nM BBS (A),Swiss 3T3 fibroblasts [4]; 5000 nM,44 ± 12%
same,% inhibition in the presence of 25 nM BBS (B),Swiss 3T3 fibroblasts [4]; 5000 nM,83 ± 6%
same,Antagonism of BBS (in words),Swiss 3T3 fibroblasts [4],potent antagonists
same,"[H3]thymidine incorporation, fold increase over basal value",Swiss 3T3 fibroblasts [2]; 5 nM,1
same,"[H3]thymidine incorporation, fold increase over basal value",Swiss 3T3 fibroblasts [2]; 50 nM,1
same,"[H3]thymidine incorporation, fold increase over basal value",Swiss 3T3 fibroblasts [2]; 500 nM,1.4
same,"[H3]thymidine incorporation, fold increase over basal value",Swiss 3T3 fibroblasts [2]; 5000 nM,1.8
same,Effect on thymidine incorporation (in words),Swiss 3T3 fibroblasts [2],did not increase incorporation of thymidine
